Tests used:
[1] = Stability of DAC, 2dC, and 5mC (LC-MS/MS); type: physicochemical; conditions: for Digest Buffers Stability (−70° C.) (35 Days) (%): digest buffer; for Stock Stability (27 Days) (%): Stock solution in water 1 mg/mL, −20° C. printed for DAC only
Method: (§1) Standards and quality control (QCs) samples were prepared by adding known concentrations of analytes into blank digest matrix (all solvents used during the DNA digest except for the enzymes). All digested DNA samples, standards and QCs were prepared for analysis by adding 20 μL internal standard (5AC-^15N4, 2dC-^13C^15N2 and 5mC-d3 in water) to 100 μL of sample and vortex-mix briefly. The internal standard in the range of 5 μL, 10 μL, or 15 μL to 20 μL, 25 μL, 30 μL, or 35 μL could be added to a sample. The sample could be in the range of 85 μL, 90 μL, or 95 μL to 100 μL, 105 μL, 110 μL, or 110 μL. The samples were injected onto a LC-MS system containing a Waters Acquity UPLC (Milford, Mass.) interfaced with an AB Sciex 5500 triple quadruple mass spectrometer (Foster City, Calif.). Chromatographic separation was achieved using Thermo Hypercarb porous graphite analytical column (100×2.1 mm, 5 μm, Waltham, Mass.) running isocratic with 10 mM ammonium acetate-acetonitrile-formic acid (70:30:0.1, v/v) with a flow rate of […]. The mass spectrometer was run in positive electrospray ionization mode with follow MRM transitions: DAC: 228.9→113.0, 2dC: 228.0→112.0, 5mC: 242.0→126.0, 5AC-^15N4 (internal standard): 249.0→117.0, 2dC-^13C^15N2 (internal standard) 230.8→115.0 and 5mC-d3 (internal standard) 245.8→129.0. The calibration range was 2-400 ng/mL for DAC, 5-1,000 ng/mL for 5mC, and 50-10,000 ng/mL for 2dC. All analytes were quantified using quadratic regression with 1/x^2 weighing.
A LC-MS/MS method was developed and validated to determine DAC, 2dC, and 5mC concentrations in DNA digest matrix (FIGS. 1-3). No major interferences were observed from blank matrix (FIGS. 1 and 2). Samples can be stored as the single dephosphorylated nucleotides for up to 35 days. The method has been applied in vitro to untreated (FIG. 4) and DAC treated cells (FIG. 5).

whole bone marrow cells = experiment: DAC and 5mC content in genomic DNA of bone marrow cells from mice treated with DAC; type: in vivo; conditions: DAC 1, 2 or 5 mg/kg intraperitoneal, 10 doses (FIG. 7)
Method: (§2) Genomic DNA was suspended in 50 μL of HPLC grade water, and digested with 4 Units of Nuclease P1 (Sigma Aldrich) at 65° C. for 10 minutes in a digestion buffer containing 0.04 mM DFAM, 3.25 mM ammonium acetate pH 5.0, 0.5 mM zinc chloride in a final volume of 100 μL. 20 μL of 100 mM Trizma base, pH 8.5 was added and this reaction was treated with 4 Units of Alkaline Phosphatase at 37° C. for 1 hour. Following incubation, 20 μL of 300 mM ammonium acetate, pH 5.0 and 6 μL of 0.25 mM DFAM/50 mM ethylenediaminetetraacetic acid was added to stop digestion.
(§3) Standards and quality control (QCs) samples were prepared by adding known concentrations of analytes into blank digest matrix (all solvents used during the DNA digest except for the enzymes). All digested DNA samples, standards and QCs were prepared for analysis by adding 20 μL internal standard (5AC-^15N4, 2dC-^13C^15N2 and 5mC-d3 in water) to 100 μL of sample and vortex-mix briefly. The internal standard in the range of 5 μL, 10 μL, or 15 μL to 20 μL, 25 μL, 30 μL, or 35 μL could be added to a sample. […] All analytes were quantified using quadratic regression with 1/x^2 weighing. […]
(§4) DAC (1, 2 or 5 mg/kg) (Sigma-Aldrich) or vehicle was administered via daily intraperitoneal injection. […] DAC, 2dC, and 5mC were measured using our LC-MS/MS analytical approach.

[2] = system: DU145 human prostate cancer cells; experiment: DAC incorporation into genomic DNA of DU145 cells (LC-MS/MS); type: cell-based
Method: as §2, §1
DU145 prostate cancer cells were cultured in RPMI-1640, supplemented with 5% fetal bovine serum (Invitrogen). DAC was dissolved in DMSO and added to the culture at varying concentrations. The same volume of DMSO was added as a control. Cells were allowed to grow for 48 hr. An independent experiment was performed in three replicates. Following cell harvest, genomic DNA isolation, digestion to single dephosphorylated nucleotides according to our described protocols, DAC and 2dC content were determined using our LC-MS/MS analytical approach.

[3] = due to deamination to 5-aza-2′-deoxyuridine; cited from earlier work
colon tissue = experiment: DAC and 5mC content in genomic DNA of colon cells from mice treated with DAC; type: in vivo; conditions: DAC 1, 2 or 5 mg/kg intraperitoneal, 10 doses (FIG. 7)
Method: as §2, §3, §4

[4] = DU145 cells treated with 500 nM DAC (FIG. 5)

SMILES: Nc1ccn([C@H]2C[C@H](O)[C@@H](CO)O2)c(=O)n1 [2dC, 2′-deoxycytidine]
- Reinjection Stability (5 Days) (5° C.) (%) ([1]; High QC): 106.0%
- Digest Buffers Stability (−70° C.) (35 Days) (%) ([1]; High QC): 99%
- Reinjection Stability (5 Days) (5° C.) (%) ([1]; Low QC): 108.0%
- Digest Buffers Stability (−70° C.) (35 Days) (%) ([1]; Low QC): 107.2%
- Stock Stability (27 Days) (%) [1]: 98.7%

SMILES: Nc1ncn([C@H]2C[C@H](O)[C@@H](CO)O2)c(=O)n1 [DAC, 5-aza-2′-deoxycytidine]
- Reinjection Stability (5 Days) (5° C.) (%) ([1]; High QC): 92.5%
- Digest Buffers Stability (−70° C.) (35 Days) (%) ([1]; High QC): 103.2%
- Reinjection Stability (5 Days) (5° C.) (%) ([1]; Low QC): 88.6%
- Digest Buffers Stability (−70° C.) (35 Days) (%) ([1]; Low QC): 101.8%
- Stock Stability (27 Days) (%) [1]: 94.8%
- DAC incorporation into genomic DNA (DAC per thousand 2dC) (whole bone marrow cells): dose responsive increase in incorporation
- concentration of 2dC in digested genomic DNA [2, 4]: 1250 ng/mL
- concentration of 5mC in digested genomic DNA [2, 4]: 27.4 ng/mL
- concentration of DAC in digested genomic DNA [2, 4]: 2.8 ng/mL
- amount of DAC per thousand 2dC versus initial treatment dose ([2]; increasing doses of DAC, 48 hours, three replicates (FIG. 6)): strong linear correlation
- plasma half-life [3]: 15 to 25 min
- 5mC content (per thousand 2dC) relative to DAC incorporation (colon tissue): inversely correlated with DAC incorporation
- DAC incorporation into genomic DNA (DAC per thousand 2dC) (colon tissue): dose responsive increase in incorporation

Source: US11035850B2, “Quantitative determination of nucleoside analogue drugs in genomic DNA or RNA” (THE JOHNS HOPKINS UNIVERSITY, priority 2016, dated 2021)
